# Data reported in patent US10189819B2, “Factor IXa inhibitors” (MERCK SHARP & DOHME CORP., priority 2014, dated 2019).
# Biological target: Factor IXa (Homo sapiens (Human), UniProt P00740)
# Assay: Determination of inhibitory activity against Factor IXa (cleavage of fluorescent peptide CH3SO2-D-CHG-Gly-Arg-AFC)
# Assay type: biochemical
# Settings: read-out: hFIXa IC50
# Procedure: Determination of Inhibitory Activity Against Factor IXa
# Formation of a clot to stem bleeding at a site of blood vessel injury involves the coordinated activity of a group of plasma proteins that initiate and propagate fibrin formation and subsequently protect fibrin from premature degradation. Factor IX is a key component of the plasma system that forms a fibrin clot at a site of vascular injury. The activity of Factor IXa is measured by monitoring the cleavage of the fluorescent peptide, CH3SO2-D-CHG-Gly-Arg-AFC.AcOH (“CHG” is cyclohexyl-glycine and “AFC” is trifluoro aminomethyl coumarin). Factor IXa cleaves the amide bond between Arg and AFC, thereby releasing the AFC fluorophore. The free AFC can be detected with a fluorescence detector at an excitation wavelength of 405 nm and emission wavelength of 510 nm.
# Chain of Factor IXa (P00740 227-461): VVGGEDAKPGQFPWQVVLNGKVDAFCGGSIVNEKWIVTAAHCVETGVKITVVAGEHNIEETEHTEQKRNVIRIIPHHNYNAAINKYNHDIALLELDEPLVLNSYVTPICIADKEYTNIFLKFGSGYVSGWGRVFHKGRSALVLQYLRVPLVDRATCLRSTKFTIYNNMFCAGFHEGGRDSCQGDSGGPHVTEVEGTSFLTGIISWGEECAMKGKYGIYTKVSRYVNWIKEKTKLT
# Chain of Factor IXa (P00740 47-191 partner): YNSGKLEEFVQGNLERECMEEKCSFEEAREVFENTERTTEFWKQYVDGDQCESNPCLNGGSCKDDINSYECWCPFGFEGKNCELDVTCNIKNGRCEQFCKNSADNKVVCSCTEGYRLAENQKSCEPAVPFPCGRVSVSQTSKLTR
row,Compound,IC50
1,Cc1ccc(F)c2nc(C(CNC(=O)c3ccc(-n4cnnc4)cc3Cl)c3ccccc3)[nH]c(=O)c12 (centres unmarked) [Example 101],6.68 nM
2,O=C(O)c1ccc2ncn(-c3ccc(C(=O)NCC(c4cccc(F)c4)c4nc5c(F)ccc(Cl)c5c(=O)[nH]4)c(Cl)c3)c2c1 (centres unmarked) [Example 104],1.97 nM
3,O=C(O)c1ccc2c(c1)ncn2-c1ccc(C(=O)NCC(c2cccc(F)c2)c2nc3c(F)ccc(Cl)c3c(=O)[nH]2)c(Cl)c1 (centres unmarked) [Example 105],3.32 nM
4,Cc1ccc(F)c2nc([C@@H](CNC(=O)c3ccc(-c4ccnnc4)cc3Cl)c3cccc(F)c3)[nH]c(=O)c12 [Example 106],8.5 nM
5,Cc1ccc(F)c2nc([C@@H](CNC(=O)c3ccc(-n4cnc(CCO)c4)cc3Cl)c3cccc(F)c3)[nH]c(=O)c12 [Example 107],7.3 nM
6,Cc1ccc(F)c2nc([C@@H](CNC(=O)c3ccc(-c4ccc(=O)n(C)c4)cc3Cl)c3cccc(F)c3)[nH]c(=O)c12 [Example 108],9.2 nM
7,Cc1ccc(F)c2nc([C@@H](CNC(=O)c3ccc(-n4cnn(C)c4=O)cc3Cl)c3cccc(F)c3)[nH]c(=O)c12 [Example 109],1.8 nM
8,Cc1ccc(F)c2nc([C@@H](CNC(=O)c3ccc(-n4cnnc4C(F)F)cc3Cl)c3cccc(F)c3)[nH]c(=O)c12 [Example 111],9.6 nM

# Further lines, results first:
row,IC50,Compound
1,10.7 nM,Cc1ncn(-c2ccc(C(=O)NC[C@@H](c3ccccc3)c3nc4c(F)ccc(C)c4c(=O)[nH]3)c(Cl)c2)n1 [Example 102]
2,6.35 nM,Cc1ncn(-c2ccc(C(=O)NC[C@@H](c3cccc(F)c3)c3nc4c(F)ccc(C)c4c(=O)[nH]3)c(Cl)c2)n1 [Example 103]
3,8.9 nM,Cc1ncn(-c2cc(Cl)c(C(=O)NC[C@@H](c3cccnc3)c3nc4c(F)ccc(C)c4c(=O)n3C)c(Cl)c2)n1 [Example 110]
4,10.4 nM,Cc1ncn(-c2cc(Cl)c(C(=O)NC[C@@H](c3cccc(F)c3)c3ccc4c(C)ccc(F)c4n3)c(Cl)c2)n1 [Example 113]
5,52.2 nM,COc1cc([C@@H](CNC(=O)c2c(Cl)cc(-n3cnc(C)n3)cc2Cl)c2cccc(F)c2)nc2c(F)ccc(C)c12 [Example 114]
6,51.1 nM,Cc1ncn(-c2cc(Cl)c(C(=O)NCC(c3cccc(F)c3)c3nc4cc(C)c(C)cc4[nH]c3=O)c(Cl)c2)n1 (centres unmarked) [Example 116]
